PubChem BioAssay AID194 (DTP/NCI, 2004)
Where “and” joins values, the source holds several entries; their conditions need not be identical. Equal values may be shown once. Records with an inconclusive call do not appear.

Test system: BDF1 mice, B16 melanoma s.c., survival/tumor T/C
Test: NCI In Vivo Anticancer Drug Screen. Data for tumor model B16 Melanoma (subcutaneous) in B6D2F1 (BDF1) mice
Conditions: endpoint: median survival time, higher = longer survival
Description: The antitumor activity of compounds was measured in mice bearing transplantable tumors. Survival or tumor size were measured and the results are expressed as the measurement made in the treated group (T) divided by the measurement made in the vehicle treated control group (C). The tumor model used in this assay is B16 Melanoma (subcutaneous) in B6D2F1 (BDF1) mice

[1] = dose: 20.0 mg/kg/injection, schedule: Q01DX009 (ip), vehicle: Klucel (hydroxypropylcellulose) (HPC)

C1CCC2[N-]CC3CCCCC3[N-]CC3CCCCC3[N-]CC3CCCCC3[N-]CC2C1.[Cu] (centres undefined) was tested, and the T/C (dose: 5.12 mg/kg/injection, schedule: Q01DX005 (ip), vehicle: Klucel (hydroxypropylcellulose) (HPC)) was 98 % of control, the T/C (dose: 6.4 mg/kg/injection, schedule: Q01DX005 (ip), vehicle: Klucel (hydroxypropylcellulose) (HPC)) was 95 % of control and 96 % of control and 102 % of control and the T/C (dose: 8.0 mg/kg/injection, schedule: Q01DX001 (ip), vehicle: Klucel (hydroxypropylcellulose) (HPC)) was 93 % of control and 95 % of control and 106 % of control. For the same compound, the T/C (dose: 8.0 mg/kg/injection, schedule: Q01DX005 (ip), vehicle: Klucel (hydroxypropylcellulose) (HPC)) was 96 % of control and 97 % of control and 98 % of control, the T/C (dose: 10.0 mg/kg/injection, schedule: Q01DX001 (ip), vehicle: Klucel (hydroxypropylcellulose) (HPC)) was 95 % of control and 107 % of control and 109 % of control and the T/C (dose: 12.5 mg/kg/injection, schedule: Q01DX001 (ip), vehicle: Klucel (hydroxypropylcellulose) (HPC)) was 93 % of control and 94 % of control and 119 % of control.
COC(=O)[C@@]12OC[C@]34[C@H]([C@@H](O)[C@@H]1O)[C@@]1(C)CC(=O)C(O)=C(C)[C@@H]1C[C@H]3OC(=O)[C@H](OC(=O)/C=C(\C)C(C)C)[C@@H]24 was tested, and the T/C (dose: 0.25 mg/kg/injection, schedule: Q01DX009 (ip), vehicle: saline with Tween-80) was 109 % of control, the T/C (dose: 0.5 mg/kg/injection, schedule: Q01DX009 (ip), vehicle: saline with Tween-80) was 96 % of control and the T/C (dose: 1.0 mg/kg/injection, schedule: Q01DX009 (ip), vehicle: saline with Tween-80) was 103 % of control. For the same compound, the T/C (dose: 1.1 mg/kg/injection, schedule: Q01DX009 (ip), vehicle: saline with Tween-80) was 121 % of control, the T/C (dose: 1.3 mg/kg/injection, schedule: Q04DX003 (ip), vehicle: saline with Tween-80) was 116 % of control and the T/C (dose: 2.0 mg/kg/injection, schedule: Q01DX001 (ip), vehicle: saline with Tween-80) was 103 % of control. The T/C (dose: 2.0 mg/kg/injection, schedule: Q04DX003 (ip), vehicle: saline with Tween-80) was 112 % of control.
For COc1ccc(C[C@H](N)C(=O)NC2C(CO)OC(n3cnc4c(N(C)C)ncnc43)C2O)cc1 (some centres undefined), the T/C (dose: 8.0 mg/kg/injection, schedule: Q01DX009 (ip), vehicle: saline) was 151 % of control, the T/C (dose: 16.0 mg/kg/injection, schedule: Q01DX009 (ip), vehicle: saline) was 96 % of control and the T/C (dose: 32.0 mg/kg/injection, schedule: Q01DX009 (ip), vehicle: saline) was 107 % of control.
In the case of O=P1(NCCCl)OCCCN1CCCl (centres undefined), the T/C (dose: 300.0 mg/kg/injection, schedule: Q01DX001 (ip), vehicle: saline) is reported as 154 % of control and the T/C (dose: 460.0 mg/kg/injection, schedule: Q01DX001 (ip), vehicle: saline) is reported as 150 % of control.
With OC(CBr)C(O)C(O)C(O)CBr (centres undefined) the T/C [1] was 102 % of control, the T/C (dose: 40.0 mg/kg/injection, schedule: Q01DX009 (ip), vehicle: Klucel (hydroxypropylcellulose) (HPC)) was 106 % of control and the T/C (dose: 125.0 mg/kg/injection, schedule: Q01DX009 (ip), vehicle: Klucel (hydroxypropylcellulose) (HPC)) was 113 % of control. The T/C (dose: 150.0 mg/kg/injection, schedule: Q01DX009 (ip), vehicle: Klucel (hydroxypropylcellulose) (HPC)) was 106 % of control and the T/C (dose: 250.0 mg/kg/injection, schedule: Q01DX009 (ip), vehicle: Klucel (hydroxypropylcellulose) (HPC)) was 123 % of control.
In the case of Cc1c2ccncc2c(C)c2c1[nH]c1ccccc12, the T/C (dose: 25.0 mg/kg/injection, schedule: Q04DX003 (ip), vehicle: Klucel (hydroxypropylcellulose) (HPC)) is reported as 105 % of control, the T/C (dose: 50.0 mg/kg/injection, schedule: Q04DX003 (ip), vehicle: Klucel (hydroxypropylcellulose) (HPC)) is reported as 98 % of control and the T/C (dose: 82.0 mg/kg/injection, schedule: Q04DX003 (ip), vehicle: saline with Tween-80) is reported as 122 % of control. The T/C (dose: 400.0 mg/kg/injection, schedule: Q01DX001 (ip), vehicle: saline with Tween-80) was 112 % of control and the T/C (dose: 900.0 mg/kg/injection, schedule: Q01DX001 (ip), vehicle: saline with Tween-80) was 114 % of control.
O=C1C=CC(=O)N1c1ccc(Cl)cc1 was tested, and the T/C (dose: 1.25 mg/kg/injection, schedule: Q01DX009 (ip), vehicle: Klucel (hydroxypropylcellulose) (HPC)) was 123 % of control, the T/C (dose: 5.0 mg/kg/injection, schedule: Q01DX009 (ip), vehicle: Klucel (hydroxypropylcellulose) (HPC)) was 102 % of control and the T/C (dose: 10.0 mg/kg/injection, schedule: Q01DX009 (ip), vehicle: Klucel (hydroxypropylcellulose) (HPC)) was 89 % of control. The T/C [1] was 98 % of control.
For CCSC(=O)N1c2ccc(OC)cc2C=CC1C#N (centres undefined), the T/C (dose: 100.0 mg/kg/injection, schedule: Q01DX009 (ip), vehicle: saline with Tween-80) was 109 % of control and the T/C (dose: 200.0 mg/kg/injection, schedule: Q01DX009 (ip), vehicle: saline with Tween-80) was 114 % of control.
